Data reported in patent US20050221381A1, “Method for isolating ligands” (priority 2002, published 2005).
Where two headings read alike, the source gives them in different places.

What was measured:
[1] = tested on: PBMC from CMV seropositive donors; format: cell-based, human; settings: for Frequency in screen (number of refinding/number of donors' expressing the respective HLA type): literature known class I epitopes
[2] = biological target: T1, soluble DRB1*0401 molecules (DR4) (Homo sapiens, UniProt P01903+P01911, A100K/A169T/F76Y/I96L/K127E/L162R/M171V/N62H/P40V/Q125Y/R42H/S133A/S149N/S66Y/V115G/V209L/W38E); format: binding; set-up: key to DR4 binding: +++: high binding affinity; ++: moderate binding affinity; +: low binding affinity; −: no binding; key to Binding to DRB1 *0401: −: no binding/T cell response; +/−: weak binding/T cell response; +: intermediate binding/T cell response; ++: strong binding/T cell response; settings: for Binding to DRB1 *0401: soluble DRB1*0401 molecules
T1 construct: Soluble HLA class I A*0201 and HLA class II DRA1*0101/DRB1*0101/Ii, DRA1*0101/DRB1*0401/Ii and DRA1*0101/DRB1*0404/Ii molecules were expressed in SC-2 cells; made in house; host or cells: SC-2 cells

[3] = tested on: HLA-DRB1*0401-transgenic mice splenocytes; format: in vivo, mouse; set-up: key to DRB1*0401 mice total SC (T cell response) / DRB1*0401 mice CD4+ (T cell response): −: no binding/T cell response; +/−: weak binding/T cell response; +: intermediate binding/T cell response; ++: strong binding/T cell response
[4] = biological target: T1, soluble DRB1*0401 molecules (DR4); format: binding; set-up: key: −: no binding; +/−: weak binding; +: intermediate binding; ++: strong binding; settings: individual pp65 15mer, SDS-stability assay
[5] = biological target: T1, soluble DRB1*0401 molecules (DR4); format: binding; set-up: key: +++: high binding affinity; ++: moderate binding affinity; +: low binding affinity; −: no binding; settings: individual pp65 15mer, SDS-stability assay
[6] = IFN-gamma ELISpot, enriched CD4+ fraction of splenocytes of HLA-DR4 transgenic mice vaccinated with the longer peptide, ex vivo re-stimulation
[7] = IFN-gamma ELISpot, total splenocytes of HLA-DR4 transgenic mice vaccinated with the longer peptide, ex vivo re-stimulation
[8] = direct binding of individual peptides, SDS-stability assay, compared with YAR and HA306-318

Sequence	Binding to DRB1 *0401 [2]	DRB1*0401 mice CD4+ (T cell response) [3, 6]	DRB1*0401 mice total SC (T cell response) [3, 7]	further results
NLVPMVATV [reference compound]				Number of donors recognizing the epitope ([1]; HLA A2 donors): 9 out of 10; Frequency in screen (number of refinding/number of donors' expressing the respective HLA type) [1]: 8/9
GRLKAESTVAPEEDT [Peptide 454]	+	+/−	+/−	Binding to DRB1*0401 [4]: +
PFMRPHERNGFTVLC [Peptide 262]				Recognition by T cells in HLA context other than described [1]: recognized by T cells in a different HLA context than known before
SGVMTRGRLKAESTV [Peptide 448]	−	−	+/−	Binding to DRB1*0401 [5]: −
AETPGCVAYIGISFLDQ [Peptide 1239]				DR4 binding [2, 8]: −
QNLKYQEFFWDANDI [Peptide 506]	−	+/−	++	Induction of IFN-gamma secretion in T cells / PBMC from CMV seropositive donors [1]: can induce functional, IFN-gamma secreting T cells in humans
RQQNQWKEPDVYYTS [Peptide 170]				Binding to DRB1*0401 [5]: −
IDELKTNSSLLTSILTYHVV [Peptide 1235]				DR4 binding [2, 8]: −
MQVIGDQYVKVYLES [Peptide 216]				Induction of IFN-gamma secretion in T cells / PBMC from CMV seropositive donors [1]: can induce functional, IFN-gamma secreting T cells in humans
NFAGIEAAASAIQGNV [Peptide 1238]				DR4 binding [2, 8]: −
LLQRGPQYSEHPTFT [Peptide 356]		+/−	+/−	
RHTWDRHDEGAAQGD [Peptide 382]	−	−	−	Binding to DRB1*0401 [5]: −
HNPAVFTWPPWQAGI [Peptide 477]				Induction of IFN-gamma secretion in T cells / PBMC from CMV seropositive donors [1]: can induce functional, IFN-gamma secreting T cells in humans
ATKMQVIGDQYVKVY [Peptide 213]				Induction of IFN-gamma secretion in T cells / PBMC from CMV seropositive donors [1]: can induce functional, IFN-gamma secreting T cells in humans
RIFAELEGV				Frequency in screen (number of refinding/number of donors' expressing the respective HLA type) [1]: 1/9
LKAESTVAPEEDTDE [Peptide 456]		−	−	
HDEGAAQGDDDVWTS [Peptide 388]				Binding to DRB1*0401 [5]: −
YRHTWDRHDEGAAQG [Peptide 381]	−	−	−	
QGQNLKYQEFFWDAN [Peptide 504]	−	−	−	
TPRVTGGGAMAGAST [Peptide 417]				Recognition by T cells in HLA context other than described [1]: recognized by T cells in a different HLA context than known before
RLKAESTVAPEEDTD [Peptide 455]	+	+/−	+/−	Binding to DRB1*0401 [5]: −
ARNLVPMVATVQGQN [Peptide 493]				Reactivity, induction of IFN-gamma secretion ([1]; donor 10736, single peptides, secondary screen (FIG. 9)): inducers of IFN-gamma secretion
QYSEHPTFTSQYRIQ [Peptide 362]				DRB1*0401 mice CD4+ (T cell response) ([3]; mouse, in vivo): ++; DRB1*0401 mice total SC (T cell response) ([3]; mouse, in vivo, sc): +
YTSAFVFPTKDVALR [Peptide 182]		+/−	+/−	
EFFWDANDIYRIFAE [Peptide 512]				Binding to DRB1*0401 [5]: −
GVSTANATVYMIDSVL [Peptide 1237]				DR4 binding [2, 8]: ++
YQEFFWDANDIYRIF [Peptide 510]	−	++	++	Binding to DRB1*0401 [5]: −
WDRHDEGAAQGDDDV [Peptide 385]	−	−	−	Binding to DRB1*0401 [5]: −
YSEHPTFTSQYRIQG [Peptide 363]				DRB1*0401 mice CD4+ (T cell response) ([3]; mouse, in vivo): ++; DRB1*0401 mice total SC (T cell response) ([3]; mouse, in vivo, sc): +
YPKYVKQNTLKLAT [HA306-318, reference compound]				DR4 binding [2]: ++
